Patent US5856509A, “Derivatives of imidazole, their preparation process, the new intermediates obtained, their use as medicaments and the pharmaceutical compositions containing them” (Roussel Uclaf, priority 1994, dated 1999)

Columns and labels:
[1] = biological target: T1, B receptor of endothelin (Rattus norvegicus, UniProt P21451); experiment: Study of the activity on the B receptor of endothelin: displacement of 125I Endothelin on membrane preparation of rat posterior cortex plus cerebellum; type: binding; conditions: Table I, rat posterior cortex plus cerebellum membranes, 25° C., 60 minutes, read-out: B receptor of endothelin IC50 in nanomoles
T1 construct: A membrane preparation is produced from the posterior cortex plus cerebellum of a rat; from tissue; host or cells: rat posterior cortex plus cerebellum, membrane preparation
T1 sequence (P21451 27-442): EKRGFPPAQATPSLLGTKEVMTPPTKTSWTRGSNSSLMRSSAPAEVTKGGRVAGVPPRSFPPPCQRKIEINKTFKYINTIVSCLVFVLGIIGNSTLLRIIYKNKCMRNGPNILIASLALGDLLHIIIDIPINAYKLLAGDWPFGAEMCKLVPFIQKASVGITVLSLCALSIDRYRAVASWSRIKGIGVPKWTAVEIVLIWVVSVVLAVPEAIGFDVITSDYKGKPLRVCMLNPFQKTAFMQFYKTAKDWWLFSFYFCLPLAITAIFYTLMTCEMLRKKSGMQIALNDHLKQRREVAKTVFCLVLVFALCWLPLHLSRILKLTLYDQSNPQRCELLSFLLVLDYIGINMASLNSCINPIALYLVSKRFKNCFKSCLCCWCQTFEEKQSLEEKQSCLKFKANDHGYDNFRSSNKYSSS
Experimental: STUDY OF THE ACTIVITY ON THE B RECEPTOR OF ENDOTHELIN
A membrane preparation is produced from the posterior cortex plus cerebellum of a rat. The tissue is ground up in a POLYTRON in a 50 mM Tris buffer pH=7.4.
After 30 minutes at 25° C. (W.B.) the homogenate is centrifuged at 30000 g for 15 minutes (2 centrifugations with intermediate take-up in the Tris buffer pH. 7.4).
(§1) The pellets are resuspended in an incubation buffer (25 mM Tris, 5 microg/ml pepstatin A, 3 microg/ml aprotinin, 0.1 mM PMSF, 3 mM EDTA, 1 mM EGTA pH 7.4).
(§2) 2 ml aliquots are distributed into hemolysis tubes and ^125 I Endothelin (approximately 50000 dpm/tube) and the product to be studied are added. (The product is first tested at 3×10^-5 M three times). When the tested product displaces more than 50% of the radioactivity specifically bound to the receptor, it is tested again according to a range of 7 concentrations so as to determine the concentration which inhibits the radioactivity specifically bound to the receptor by 50%. In this way the 50% inhibitory concentration is determined.
(§3) The non-specific bond is determined by the addition of 10^-6 M endothelin (three times). After incubation at 25° C. for 60 minutes, putting back in the water bath at 0° C., for 5 minutes, filtering under reduced pressure, rinsing with Tris buffer 7.4, the radioactivity is counted in the presence of scintillating Triton.
(§4) The result is expressed directly as the 50% inhibitory concentration (IC50), that is to say as the concentration of product studied expressed in nM, necessary to displace 50% of the specific radioactivity bound to the receptor studied.

[2] = biological target: T2, A receptor of endothelin (Rattus norvegicus, UniProt P26684); experiment: Study of the activity on the A receptor of endothelin: displacement of 125I Endothelin on membrane preparation of rat heart (ventricles); type: binding; conditions: Table II, rat heart (ventricles) membranes, 25° C., 60 minutes, read-out: B receptor of endothelin IC50 in nanomoles
T2 construct: A membrane preparation is produced from the heart (ventricles) of a rat; from tissue; host or cells: rat heart (ventricles), membrane preparation
T2 sequence (P26684 21-426): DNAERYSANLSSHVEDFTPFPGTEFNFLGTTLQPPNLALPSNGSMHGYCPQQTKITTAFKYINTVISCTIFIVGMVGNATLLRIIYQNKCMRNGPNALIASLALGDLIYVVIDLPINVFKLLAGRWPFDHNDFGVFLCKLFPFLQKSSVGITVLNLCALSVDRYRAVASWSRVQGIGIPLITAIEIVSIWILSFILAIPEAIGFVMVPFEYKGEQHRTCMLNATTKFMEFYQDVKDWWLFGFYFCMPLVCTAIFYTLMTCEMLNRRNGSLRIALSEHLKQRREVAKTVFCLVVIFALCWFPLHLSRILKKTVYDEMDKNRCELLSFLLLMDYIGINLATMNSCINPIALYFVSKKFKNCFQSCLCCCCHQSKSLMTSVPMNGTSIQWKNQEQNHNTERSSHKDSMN
Experimental: STUDY OF THE ACTIVITY ON THE A RECEPTOR OF ENDOTHELIN
A membrane preparation is produced from the heart (ventricles) of a rat. The tissue is ground up in a POLYTRON in a 50 mM Tris buffer pH=7.4.
After 30 minutes at 25° C. (W.B.) the homogenate is centrifuged at 30000 g for 15 minutes (2 centrifugations with intermediate take up in the Tris buffer pH. 7.4).
as §1, §2, §3, §4

## COc1ccc(CSc2nc(Sc3ccccc3)n(Cc3cc4c(cc3Cl)OCO4)c2C(=O)O)cc1 [Example 10, 1-((6-chloro-1,3-benzodioxol-5-yl)methyl)-4-(((4-methoxyphenyl)methyl)thio)-2-(phenylthio)-1H-imidazole-5-carboxylic acid]
[1]
  IC50: 420 nM
[2]
  IC50: 167 nM

## COc1ccc(Sc2nc(Sc3ccccc3)n(Cc3cc4c(cc3Cl)OCO4)c2C(=O)O)cc1 [Example 15]
[1]
  IC50: 110 nM
[2]
  IC50: 170 nM

## COc1ccc(Sc2nc(Sc3ccc(OC)cc3)n(Cc3cc4c(cc3Cl)OCO4)c2C(=O)O)cc1 [Example 18, 1-((6-chloro-1,3-benzodioxol-5-yl)methyl)-2,4-bis(4-(methoxyphenyl)thio)-1H-imidazole-5-carboxylic acid]
[1]
  IC50: 88 nM
[2]
  IC50: 230 nM
